The results in this text go back to patent publication US20080070867A1, “2-Imidazolone and 2-Imidazolidinone Heterocyclic Inhibitors of Tyrosine Phosphatases” (Metabasis Therapeutics, Inc., priority 2005, published 2008).

A value given as a limit tells only on which side of the number the result lay.

The target of this test is T1, Human recombinant PTP-1B (Homo sapiens, UniProt P18031).
T1 construct: Human recombinant PTP-1B, containing amino acids 1-321, fused to GST enzyme; GST (glutathione S-transferase)
T1 sequence (P18031 1-321): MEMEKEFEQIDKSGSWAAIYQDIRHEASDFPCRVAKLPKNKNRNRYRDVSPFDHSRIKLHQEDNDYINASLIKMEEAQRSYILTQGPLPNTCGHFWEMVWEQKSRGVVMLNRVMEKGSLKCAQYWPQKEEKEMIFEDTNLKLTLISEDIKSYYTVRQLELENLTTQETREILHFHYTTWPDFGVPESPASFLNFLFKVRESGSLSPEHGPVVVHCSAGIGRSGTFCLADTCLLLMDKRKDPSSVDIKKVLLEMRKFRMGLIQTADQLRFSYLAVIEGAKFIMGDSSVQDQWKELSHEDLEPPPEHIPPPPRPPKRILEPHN
The test can be described thus: Assay for PTP-1B Activity (pNPP substrate). The test is classed as biochemical. Conditions: human recombinant PTP-1B (1-321) GST fusion, 2 mM pNPP, pH 7.4, 30° C., 20 min; read-out: Activity Code (IC50 range). The essentials: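 GST-fused human PTP-1B (aa 1-321) hydrolysed 2 mM pNPP in 50 mM HEPES pH 7.4, 100 mM NaCl, 2 mM EDTA, 3 mM DTT for 20 min at 30 °C, after a 2 min compound premix. K2CO3 stopped the reaction, with pNP read at 405 nm. Initial rate was plotted against inhibitor concentration.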
As usually defined, the IC50 is the concentration at which inhibition is half-maximal. As to `CC(=O)Nc1cccc(Cn2cc(-c3ccc(S(C)(=O)=O)cc3)n(Cc3ccc(C(F)(F)P(=O)(O)O)c(Br)c3)c2=O)c1` [Compound 40, ({4-[3-(3-Acetylamino-benzyl)-5-(4-methanesulfonyl-phenyl)-2-oxo-2,3-dihydro-imidazol-1-ylmethyl]-2-bromo-phenyl}-difluoro-methyl)-phosphonic acid], the IC50 is less than 0.099 µM.
Regarding `O=C(O)COc1ccc(Cn2ccn(Cc3ccc(C(F)(F)P(=O)(O)O)c(Br)c3)c2=O)cc1Cl` [Compound 83, (4-{3-[3-Bromo-4-(difluoro-phosphono-methyl)-benzyl]-2-oxo-2,3-dihydro-imidazol-1-ylmethyl}-2-chloro-phenoxy)-acetic acid], the 50% inhibitory concentration (IC50) fell in the range of 0.25 to 2.5 µM.
Consider `CS(=O)(=O)c1ccc(-c2cn(Cc3cccc(N)c3)c(=O)n2Cc2ccc(C(F)(F)P(=O)(O)O)c(Br)c2)cc1` [Compound 32, ({4-[3-(3-Amino-benzyl)-5-(4-methanesulfonyl-phenyl)-2-oxo-2,3-dihydro-imidazol-1-ylmethyl]-2-bromo-phenyl}-difluoro-methyl)-phosphonic acid], for which the IC50 is less than 0.099 µM.
As to `O=C(O)c1ccc(-c2cn(C3CC3)c(=O)n2Cc2ccc(C(F)(F)P(=O)(O)O)c(Br)c2)cc1` [Compound 35, 4-{3-[3-Bromo-4-(difluoro-phosphono-methyl)-benzyl]-1-cyclopropyl-2-oxo-2,3-dihydro-1H-imidazol-4-yl}-benzoic acid], the concentration for half-maximal inhibition (IC50) lay within 0.25 to 2.5 µM.
Consider `CCCCCCCCCCCCCCCCOCCCOP(=O)(O)C(F)(F)c1ccc(Cn2c(-c3ccc(S(C)(=O)=O)cc3)c[nH]c2=O)cc1Br` [Compound 84, ({2-Bromo-4-[5-(4-methanesulfonyl-phenyl)-2-oxo-2,3-dihydro-imidazol-1-ylmethyl]-phenyl}-difluoro-methyl)-phosphonic acid mono-(3-hexadecyloxy-propyl) ester], for which the IC50 lay within 2.5 to 25 µM.
Regarding `O=C(O)COc1ccc(-c2cn(C3CC3)c(=O)n2Cc2ccc(C(F)(F)P(=O)(O)O)c(Br)c2)cc1` [Compound 52, (4-{3-[3-Bromo-4-(difluoro-phosphono-methyl)-benzyl]-1-cyclopropyl-2-oxo-2,3-dihydro-1H-imidazol-4-yl}-phenoxy)-acetic acid], the IC50 is less than 0.099 µM.
On to `O=C(O)/C=C/c1ccc(-c2cn(C3CC3)c(=O)n2Cc2ccc(C(F)(F)P(=O)(O)O)c(Br)c2)cc1` [Compound 46, 3-(4-{3-[3-Bromo-4-(difluoro-phosphono-methyl)-benzyl]-1-cyclopropyl-2-oxo-2,3-dihydro-1H-imidazol-4-yl}-phenyl)-acrylic acid], for which the 50% inhibitory concentration (IC50) was less than 0.099 µM.
Turning to `CC(C)OC(=O)OC(C)OP(=O)(O)C(F)(F)c1ccc(Cn2c(-c3ccc(S(C)(=O)=O)cc3)c[nH]c2=O)cc1Br` (stereo not shown) [Compound 65, ({2-Bromo-4-[5-(4-methanesulfonyl-phenyl)-2-oxo-2,3-dihydro-imidazol-1-ylmethyl]phenyl}-difluoro-methyl) phosphonic acid mono-(1-isopropoxy-carbonyloxy-ethyl) ester], the half-inhibitory concentration (IC50) lay within 2.5 to 25 µM.
In the case of `CCOC(=O)C(C)(C)Oc1ccc(-c2cn(C3CC3)c(=O)n2Cc2ccc(C(F)(F)P(=O)(O)O)c(Br)c2)cc1` [Compound 73, 2-(4-{3-[3-Bromo-4-(difluoro-phosphono-methyl)-benzyl]-1-cyclopropyl-2-oxo-2,3-dihydro-1H-imidazol-4-yl}-phenoxy)-2-methyl-propionic acid ethyl ester], the half-maximal inhibitory concentration (IC50) was in the range of 0.1 to 0.249 µM.
On to `O=c1n(Cc2ccccc2)cc(-c2ccc3c(c2)CCCC3)n1Cc1ccc(C(F)(F)P(=O)(O)O)c(Br)c1` [Compound 49, ({4-[3-Benzyl-2-oxo-5-(5,6,7,8-tetrahydro-naphthalen-2-yl)-2,3-dihydro-imidazol-1-ylmethyl]-2-bromo-phenyl}-difluoro-methyl)-phosphonic acid], for which the IC50 lay in the range of 0.25 to 2.5 µM.
As to `CC(C)(C)C(=O)OCOC(=O)COc1ccc(-c2cn(C3CC3)c(=O)n2Cc2ccc(C(F)(F)P(=O)(O)OCOC(=O)C(C)(C)C)c(Br)c2)cc1` [Compound 77, 2,2-Dimethyl-propionic acid 2-{4-[3-(3-bromo-4-{[(2,2-dimethyl-propionyloxy-methoxy)-hydroxy-phosphoryl]-difluoro-methyl}-benzyl)-1-cyclopropyl-2-oxo-2,3-dihydro-1H-imidazol-4-yl]-phenoxy}-acetoxymethyl ester], the concentration for half-maximal inhibition (IC50) was in the range of 0.25 to 2.5 µM.
Consider `O=C(O)c1ccc(-c2cn(Cc3ccccn3)c(=O)n2Cc2ccc(C(F)(F)P(=O)(O)O)c(Br)c2)cc1` [Compound 36, 4-{3-[3-Bromo-4-(difluoro-phosphono-methyl)-benzyl]-2-oxo-1-pyridin-2-ylmethyl-2,3-dihydro-1H-imidazol-4-yl}-benzoic acid], for which the IC50 lay within 0.25 to 2.5 µM.
For the compound `O=c1n(Cc2ccccc2)cc(-c2ccccc2)n1Cc1ccc(C(F)(F)P(=O)(O)O)c(Br)c1` [Compound 29, {[4-(3-Benzyl-2-oxo-5-phenyl-2,3-dihydro-imidazol-1-ylmethyl)-2-bromo-phenyl]-difluoro-methyl}-phosphonic acid], the half-maximal inhibitory concentration (IC50) lay in the range of 0.25 to 2.5 µM.
The figure for `O=C(O)c1ccc(Cn2ccn(Cc3ccc(C(F)(F)P(=O)(O)O)c(Br)c3)c2=O)cc1` [Compound 85, 4-{3-[3-Bromo-4-(difluoro-phosphono-methyl)-benzyl]-2-oxo-2,3-dihydro-imidazol-1-ylmethyl}-benzoic acid] is 0.25 to 2.5 µM; for `COc1cccc(Cn2ccn(Cc3ccc(C(F)(F)P(=O)(O)O)c(Br)c3)c2=O)c1` [Compound 60, ({2-Bromo-4-[3-(3-methoxy-benzyl)-2-oxo-2,3-dihydro-imidazol-1-ylmethyl]-phenyl}-difluoro-methyl)-phosphonic acid] it is 2.5 to 25 µM; for `COC(=O)c1ccc(-c2cn(Cc3ccc(C#N)cc3)c(=O)n2Cc2ccc(C(F)(F)P(=O)(O)O)c(Br)c2)cc1` [Compound 15, 4-[3-[3-Bromo-4-(difluoro-phosphono-methyl)-benzyl]-1-(4-cyano-benzyl)-2-oxo-2,3-dihydro-1H-imidazol-4-yl]-benzoic acid methyl ester] it is 0.1 to 0.249 µM.
The result for `CC(C)(C)C(=O)OCOP(=O)(O)C(F)(F)c1ccc(Cn2c(-c3ccc(S(C)(=O)=O)cc3)c[nH]c2=O)cc1Br` [Compound 64, 2,2-Dimethyl-propionic acid ({2-bromo-4-[5-(4-methanesulfonyl-phenyl)-2-oxo-2,3-dihydro-imidazol-1-ylmethyl]-phenyl}-difluoro-methyl)-hydroxy phosphinoyloxymethyl ester] reads 2.5 to 25 µM; that for `O=c1n(Cc2ccccc2)cc(-c2cccs2)n1Cc1ccc(C(F)(F)P(=O)(O)O)c(Br)c1` [Compound 44, {[4-(3-Benzyl-2-oxo-5-thiophen-2-yl-2,3-dihydro-imidazol-1-ylmethyl)-2-bromo-phenyl]-difluoro-methyl}-phosphonic acid], 0.25 to 2.5 µM.
In the case of `N#Cc1cccc(-c2cn(Cc3ccccc3)c(=O)n2Cc2ccc(C(F)(F)P(=O)(O)O)c(Br)c2)c1` [Compound 31, ({4-[3-Benzyl-5-(3-cyano-phenyl)-2-oxo-2,3-dihydro-imidazol-1-ylmethyl]-2-bromo-phenyl}-difluoro-methyl)-phosphonic acid], the IC50 lay within 0.25 to 2.5 µM.
The figure for `N#Cc1ccc(-c2c[nH]c(=O)n2Cc2ccc(C(F)(F)P(=O)(O)O)c(Br)c2)cc1` [Compound 78, ({2-Bromo-4-[5-(4-cyano-phenyl)-2-oxo-2,3-dihydro-imidazol-1-ylmethyl]-phenyl}-difluoro-methyl)-phosphonic acid] is 0.1 to 0.249 µM.
Turning to `O=C(O)c1ccc(-c2cn(Cc3ccc(F)cc3)c(=O)n2Cc2ccc(C(F)(F)P(=O)(O)O)c(Br)c2)cc1` [Compound 13, 4-[3-[3-Bromo-4-(difluoro-phosphono-methyl)-benzyl]-1-(4-fluoro-benzyl)-2-oxo-2,3-dihydro-1H-imidazol-4-yl]-benzoic acid], the IC50 fell in the range of 0.25 to 2.5 µM.
Turning to `O=C(O)c1ccc(-c2c[nH]c(=O)n2Cc2ccc(C(F)(F)P(=O)(O)O)c(Br)c2)cc1` [Compound 7, 4-{3-[3-Bromo-4-(difluoro-phosphono-methyl)-benzyl]-2-oxo-2,3-dihydro-1H-imidazol-4-yl}-benzoic acid], the IC50 was 0.25 to 2.5 µM.
The result for `COC(=O)c1ccc(Cn2ccn(Cc3ccc(C(F)(F)P(=O)(O)O)c(Br)c3)c2=O)cc1` [Compound 81, 4-{3-[3-Bromo-4-(difluoro-phosphono-methyl)-benzyl]-2-oxo-2,3-dihydro-imidazol-1-ylmethyl}-benzoic acid methyl ester] reads 0.25 to 2.5 µM.
As for `Cn1cc(-c2ccc(S(C)(=O)=O)cc2)n(Cc2ccc(C(F)(F)P(=O)(O)OCOC(=O)C(C)(C)C)c(Br)c2)c1=O` [Compound 69, 2,2-Dimethyl-propionic acid ({2-bromo-4-[5-(4-methanesulfonyl-phenyl)-3-methyl-2-oxo-2,3-dihydro-imidazol-1-ylmethyl]-phenyl}-difluoro-methyl)-hydroxy-phosphinoyloxymethyl ester], the 50% inhibitory concentration (IC50) was 2.5 to 25 µM.
Consider `CNC(=O)c1ccc(-c2cn(Cc3ccccc3)c(=O)n2Cc2ccc(C(F)(F)P(=O)(O)O)c(Br)c2)cc1` [Compound 28, ({4-[3-Benzyl-5-(4-methylcarbamoyl-phenyl)-2-oxo-2,3-dihydro-imidazol-1-ylmethyl]-2-bromo-phenyl}-difluoro-methyl)-phosphonic acid], for which the IC50 lay within 0.25 to 2.5 µM.
